# Laboratory results taken from ChEMBL document CHEMBL6083214, “Synthesis, biochemical screening and in-silico investigations of arylsulfonamides bearing linear and cyclic tails” (Bioorg Med Chem Lett, 2024).
# What was measured:
# Carbonic anhydrase 2 = Carbonic anhydrase 2 (Homo sapiens, UniProt P00918)
# Description: Inhibition of human carbonic anhydrase II assessed as inhibition constant by stopped-flow carbon dioxide hydrase assay
# Carbonic anhydrase 1 = Carbonic anhydrase 1 (Homo sapiens, UniProt P00915)
# Description: Inhibition of human carbonic anhydrase I assessed as inhibition constant by stopped-flow carbon dioxide hydrase assay
# Carbonic anhydrase 9 = Carbonic anhydrase 9 (Homo sapiens, UniProt Q16790)
# Description: Inhibition of human carbonic anhydrase IX assessed as inhibition constant by stopped-flow carbon dioxide hydrase assay
# Carbonic anhydrase 12 = Carbonic anhydrase 12 (Homo sapiens, UniProt O43570)
# Carbonic anhydrase 12, sequence (O43570 whole entry): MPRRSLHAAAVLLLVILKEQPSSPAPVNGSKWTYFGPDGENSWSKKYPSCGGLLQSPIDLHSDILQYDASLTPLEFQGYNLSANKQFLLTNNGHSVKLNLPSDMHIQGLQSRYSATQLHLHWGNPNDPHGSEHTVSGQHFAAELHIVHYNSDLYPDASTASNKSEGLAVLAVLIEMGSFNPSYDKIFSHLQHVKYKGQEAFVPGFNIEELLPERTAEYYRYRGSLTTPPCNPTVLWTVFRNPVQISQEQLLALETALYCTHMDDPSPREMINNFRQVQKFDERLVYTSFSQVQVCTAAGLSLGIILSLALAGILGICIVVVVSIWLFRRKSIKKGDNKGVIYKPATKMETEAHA
# Description: Inhibition of human carbonic anhydrase XII assessed as inhibition constant by stopped-flow carbon dioxide hydrase assay
# Carbonic anhydrase 1, sequence (P00915 whole entry): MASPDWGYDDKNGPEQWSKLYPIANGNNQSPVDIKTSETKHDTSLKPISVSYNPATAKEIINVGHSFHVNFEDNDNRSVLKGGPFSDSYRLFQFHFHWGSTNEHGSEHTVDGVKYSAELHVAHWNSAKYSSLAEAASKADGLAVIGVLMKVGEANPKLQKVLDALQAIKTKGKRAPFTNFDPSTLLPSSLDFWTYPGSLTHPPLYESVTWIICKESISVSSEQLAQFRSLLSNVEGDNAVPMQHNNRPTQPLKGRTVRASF
Compound,Ki (Carbonic anhydrase 2),Ki (Carbonic anhydrase 1),Ki (Carbonic anhydrase 9),Ki (Carbonic anhydrase 12)
NS(=O)(=O)c1ccc(/N=C/c2ccc(Cl)cc2)cc1,22.6 nM,,,
NS(=O)(=O)c1ccc(N2C(=O)CCSC2c2ccc(F)cc2)cc1 (racemic),7.8 nM,13.6 nM,74.6 nM,9.4 nM
N#Cc1cccc(C2SCCC(=O)N2c2ccc(S(N)(=O)=O)cc2)c1 (racemic),14.6 nM,7.2 nM,18.9 nM,61.1 nM
NS(=O)(=O)c1ccc(N2C(=O)CCSC2c2ccc(Cl)cc2)cc1 (racemic),9 nM,62.4 nM,19.9 nM,8.2 nM

# More lines, now with the values ahead:
Ki (Carbonic anhydrase 2),Ki (Carbonic anhydrase 1),Ki (Carbonic anhydrase 9),Ki (Carbonic anhydrase 12),Compound
25.7 nM,,,,NS(=O)(=O)c1ccc(/N=C/c2ccc([N+](=O)[O-])cc2)cc1
8.2 nM,8.6 nM,3.7 nM,89.9 nM,N#Cc1ccc(C2SCCC(=O)N2c2ccc(S(N)(=O)=O)cc2)cc1 (racemic)
80.1 nM,82.9 nM,54.8 nM,7.1 nM,NS(=O)(=O)c1ccc(N2C(=O)CCSC2c2ccc([N+](=O)[O-])cc2)cc1 (racemic)
